The values below come from patent publication US9145399B2, “Substituted bicyclic triazole derivatives as gamma secretase modulators” (Janssen Pharmaceuticals, Inc., priority 2010, dated 2015).

The test system of data set [1] is Aβ42. In words: Screening for γ-secretase-modulating activity in SKNBE2 cells carrying APP 695 wild type: Aβ42 in cell supernatant (Alphalisa). It counts as cell-based. The settings on record: overnight incubation. A digest of the protocol: (§1)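 SKNBE2 cells expressing wild-type APP695 were incubated overnight at 37° C with test compound at several concentrations. Aβ42 and Aβtotal in supernatant were measured by AlphaLISA sandwich immunoassays. IC50 came from 4-parameter non-linear fits of percent of compound-free control versus log concentration.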

The test system of data set [2] is Aβtotal. The data set is described as follows: Screening for γ-secretase-modulating activity in SKNBE2 cells carrying APP 695 wild type: Aβtotal in cell supernatant (Alphalisa). It counts as cell-based. Particulars: overnight incubation. A digest of the protocol: as §1
Data set [3] concerns Aβ42. In words: In vivo efficacy: Aβ42 lowering in brain of non-transgenic mice after single oral dose (ELISA). Also noted: species or system mouse. Particulars: Mus musculus; dose 30 mg/kg oral dosing; soluble brain fraction, animals sacrificed after 4 h; untreated animals (Ctrl) set at 100; read-out: Aβ42 (% vs Ctrl) _Mean. An excerpt:
(§2) To determine whether acute administration of an Aβ42 lowering agent would reduce Aβ42 levels in vivo, non-transgenic rodents, e.g. mice or rats were used. Animals treated with the Aβ42 lowering agent were examined and compared to those untreated or treated with vehicle and brain levels of soluble Aβ42 and total Aβ were quantitated by standard techniques, for example, using ELISA. Treatment periods varied from hours (h) to days and were adjusted based on the results of the Aβ42 lowering once a time course of onset of effect could be established.
(§3) A typical protocol for measuring Aβ42 lowering in vivo is shown but it is only one of many variations that could be used to optimize the levels of detectable Aβ. For example, Aβ42 lowering compounds were formulated in 20% of Captisol® (a sulfobutyl ether of β-cyclodextrin) in water or 20% hydroxypropyl β cyclodextrin. The Aβ42 lowering agents were administered as a single oral dose or by any acceptable route of administration to overnight fasted animals. After 4 h, the animals were sacrificed and Aβ42 levels were analysed.
(§4) Blood was collected by decapitation and exsanguinations in EDTA-treated collection tubes. Blood was centrifuged at 1900 g for 10 minutes (min) at 4° C. and the plasma recovered and flash frozen for later analysis. The brain was removed from the cranium and hindbrain. The cerebellum was removed and the left and right hemisphere were separated. The left hemisphere was stored at −18° C. for quantitative analysis of test compound levels. The right hemisphere was rinsed with phosphate-buffered saline (PBS) buffer and immediately frozen on dry ice and stored at −80° C. until homogenization for biochemical assays.
(§5) Mouse brains from non-transgenic animals were resuspended in 8 volumes of 0.4% DEA (diethylamine)/50 mM NaCl containing protease inhibitors (Roche-11873580001 or 04693159001) per gram of tissue, e.g. for 0.158 g brain, add 1.264 ml of 0.4% DEA. All samples were homogenized in the FastPrep-24 system (MP Biomedicals) using lysing matrix D (MPBio #6913-100) at 6 m/s for 20 seconds. Homogenates were centrifuged at 221.300×g for 50 min. The resulting high speed supernatants were then transferred to fresh eppendorf tubes. Nine parts of supernatant were neutralized with 1 part 0.5 M Tris-HCl pH 6.8 and used to quantify Aβtotal and Aβ42.
(§6) To quantify the amount of Aβtotal and Aβ42 in the soluble fraction of the brain homogenates, Enzyme-Linked-Immunosorbent-Assays were used. Briefly, the standards (a dilution of synthetic Aβ1-40 and Aβ1-42, Bachem) were prepared in 1.5 ml Eppendorf tube in Ultraculture, with final concentrations ranging from 10000 to 0.3 pg/ml. The samples and standards were co-incubated with HRPO-labelled N-terminal antibody for Aβ42 detection and with the biotinylated mid-domain antibody 4G8 for Aβtotal detection. 50 μl of conjugate/sample or conjugate/standards mixtures were then added to the antibody-coated plate (the capture antibodies selectively recognize the C-terminal end of Aβ42, antibody JRF/cAβ42/26, for Aβ42 detection and the N-terminus of Aβ, antibody JRF/rAβ/2, for Aβtotal detection). The plate was allowed to incubate overnight at 4° C. in order to allow formation of the antibody-amyloid complex. Following this incubation and subsequent wash steps the ELISA for Aβ42 quantification was finished by addition of Quanta Blu fluorogenic peroxidase substrate according to the manufacturer's instructions (Pierce Corp., Rockford, Il). A reading was performed after 10 to 15 min (excitation 320 nm/emission 420 nm).
In this model at least 20% Aβ42 lowering compared to untreated animals would be advantageous.
The results are shown in Table 4 (dose 30 mg/kg oral dosing) (value for untreated animals as control (Ctrl) was set at 100): […]

Data set [4] deals with Aβtotal. In words: In vivo efficacy: Aβtotal in brain of non-transgenic mice after single oral dose (ELISA). Details: species or system mouse. The settings on record: Mus musculus; dose 30 mg/kg oral dosing; soluble brain fraction, animals sacrificed after 4 h; untreated animals (Ctrl) set at 100; read-out: Aβtotal (% vs Ctrl)_Mean.
From the text: as §2, §3, §4, §5, §6
For Aβtotal detection, a Streptavidine-Peroxidase-Conjugate was added, followed 60 min later by an additional wash step and addition of Quanta Blu fluorogenic peroxidase substrate according to the manufacturer's instructions (Pierce Corp., Rockford, Ill). A reading was performed after 10 to 15 min (excitation 320 nm/emission 420 nm). […]
(In general: In an ELISA, binding on a coated surface is turned into a signal by an enzyme label.)

Where [5] appears, read: Homo sapiens, SKNBE2, SKNBE2 cells carrying APP 695 wild type.

A value given as a limit tells only on which side of the number the result lay.

Regarding `COc1cc(Nc2nc3n(n2)CCCC3c2ccc(F)cc2C)ccc1-c1ccnc(C)c1` (stereo not shown) [Compound 91, 8-(4-fluoro-2-methylphenyl)-5,6,7,8-tetrahydro-N-[3-methoxy-4-(2-methyl-4-pyridinyl)phenyl]-[1,2,4]triazolo[1,5-a]pyridin-2-amine], the melting point came out at 161.4 °C. Half-maximal inhibition with Aβ42 [1] (setting [5]) (IC50) required 0.025 µM. Moreover, 8.51 µM corresponded to half-maximal inhibition with Aβtotal [2] (Homo sapiens) (IC50). The response vs control in vivo at 30 mg/kg with Aβ42 [3] is 51%. Besides, the response vs control in vivo at 30 mg/kg with Aβtotal [4] is 92%.

Compound `Cc1cc(-c2ccc(Nc3nc4n(n3)CCCC4c3ccc(F)cc3C)cc2)ccn1` (stereo not shown) [Compound 90, 8-(4-fluoro-2-methylphenyl)-5,6,7,8-tetrahydro-N-[4-(2-methyl-4-pyridinyl)phenyl]-[1,2,4]triazolo[1,5-a]pyridin-2-amine] came in with a melting point of 153.9 °C. In the data set on Aβ42 [1] (setting [5]), this compound showed an IC50 of 0.056 µM. For the same compound, the IC50 in the data set with Aβtotal [2] (Homo sapiens) is > 10 µM. Moreover, in the data set on Aβ42 [3], the response vs control in vivo at 30 mg/kg amounted to 38%. Besides, the response vs control in vivo at 30 mg/kg with Aβtotal [4] came out at 83%.

The compound `COc1cc(Nc2nc3c(-c4ccccc4C(F)(F)F)cccn3n2)ccc1-n1cnc(C)n1` [Compound 3, N-[3-methoxy-4-(3-methyl-1H-1,2,4-triazol-1-yl)phenyl]-8-[2-(trifluoromethyl)phenyl]-[1,2,4]triazolo[1,5-a]pyridin-2-amine] had a melting point of 195.5 °C. This compound came in with an IC50 with Aβ42 [1] (setting [5]) of 0.019 µM. Moreover, in the data set with Aβtotal [2] (Homo sapiens), the IC50 was > 10 µM. Moreover, in the data set with Aβ42 [3], the response vs control in vivo at 30 mg/kg turned out to be 75%. In the data set with Aβtotal [4], the response vs control in vivo at 30 mg/kg came out at 95%.

As for `COc1cc(Nc2nc3n(n2)CCCC3c2ccc(F)cc2F)ccc1-c1ccnc(C)c1` (stereo not shown) [Compound 82, 8-(2,4-difluorophenyl)-5,6,7,8-tetrahydro-N-[3-methoxy-4-(2-methyl-4-pyridinyl)phenyl]-[1,2,4]triazolo[1,5-a]pyridin-2-amine], the melting point amounted to 192.7 °C. This compound also gave an IC50 with Aβ42 [1] (setting [5]) of 0.039 µM. Further, the half-maximal inhibitory concentration (IC50) in the data set on Aβtotal [2] (Homo sapiens) is > 10 µM. For the same compound, the response vs control in vivo at 30 mg/kg in the data set on Aβ42 [3] came out at 47%. Besides, the response vs control in vivo at 30 mg/kg in the data set with Aβtotal [4] amounted to 89%.

Take `COc1cc(Nc2nc3n(n2)CCCC3c2ccccc2Cl)ccc1-c1ccnc(C)c1` (stereo not shown) [Compound 78]: the melting point is 169 °C. In addition, in the data set with Aβ42 [1] (SKNBE2 cells carrying APP 695 wild type), the IC50 was 0.032 µM. Besides, in the data set with Aβtotal [2], the IC50 is > 10 µM. In the data set with Aβ42 [3], the response vs control in vivo at 30 mg/kg is 46%. Moreover, the response vs control in vivo at 30 mg/kg with Aβtotal [4] was 103%.

For `COc1cc(Nc2nc3n(n2)CCC[C@@H]3c2ccccc2Cl)ccc1-n1cnc(C)c1` [Compound 28, (8R)-8-(2-chlorophenyl)-5,6,7,8-tetrahydro-N-[3-methoxy-4-(4-methyl-1H-imidazol-1-yl)phenyl]-[1,2,4]triazolo[1,5-a]pyridin-2-amine], the melting point stood at 195 °C. This compound returned an IC50 in the data set with Aβ42 [1] (setting [5]) of 0.016 µM. In the data set with Aβtotal [2] (Homo sapiens), the IC50 came out at 5.13 µM. The response vs control in vivo at 30 mg/kg in the data set on Aβ42 [3] stood at 81%. The response vs control in vivo at 30 mg/kg in the data set with Aβtotal [4] came out at 93%.

Take `Cc1cc(-c2ccc(Nc3nc4n(n3)CCCC4c3ccccc3Cl)cc2)ccn1` (stereo not shown) [Compound 41, 8-(2-chlorophenyl)-5,6,7,8-tetrahydro-N-[4-(2-methyl-4-pyridinyl)phenyl]-[1,2,4]triazolo[1,5-a]pyridin-2-amine]: the melting point amounted to 227.2 °C. In addition, the IC50 with Aβ42 [1] (setting [5]) was 0.028 µM. Also, the IC50 with Aβtotal [2] (Homo sapiens) was > 10 µM. Moreover, in the data set on Aβ42 [3], the response vs control in vivo at 30 mg/kg amounted to 54%. Also, in the data set with Aβtotal [4], the response vs control in vivo at 30 mg/kg is 102%.

As to `COc1cc(F)cc(C2CCCn3nc(Nc4ccc(-c5ccnc(C)c5)cc4)nc32)c1` (stereo not shown) [Compound 185, 8-(3-fluoro-5-methoxyphenyl)-5,6,7,8-tetrahydro-N-[4-(2-methyl-4-pyridinyl)phenyl]-[1,2,4]triazolo[1,5-a]pyridin-2-amine], the melting point is 175.1 °C. Further, the IC50 with Aβ42 [1] (setting [5]) came out at 0.028 µM. For the same compound, the IC50 in the data set with Aβtotal [2] (Homo sapiens) was > 10 µM. Besides, in the data set with Aβ42 [3], the response vs control in vivo at 30 mg/kg was 52%. For the same compound, the response vs control in vivo at 30 mg/kg in the data set with Aβtotal [4] amounted to 96%.

For orientation: IC50 means the concentration that gives 50% inhibition. Usually melting point stands for the temperature of the solid-liquid transition.
